Results published in ChEMBL document CHEMBL1201862, “PubChem BioAssay data set” (2004).
Active and inactive are the calls of the source.

Key:
Type in all cases: functional
[1] = molecular target: T1, Apoptotic protease-activating factor 1 (Homo sapiens, UniProt O14727); test: SAR analysis of small molecule inhibitors of Apaf-1 in a Fluorescent assay.; conditions: read-out: IC50_Mean
T1 sequence (O14727 whole entry): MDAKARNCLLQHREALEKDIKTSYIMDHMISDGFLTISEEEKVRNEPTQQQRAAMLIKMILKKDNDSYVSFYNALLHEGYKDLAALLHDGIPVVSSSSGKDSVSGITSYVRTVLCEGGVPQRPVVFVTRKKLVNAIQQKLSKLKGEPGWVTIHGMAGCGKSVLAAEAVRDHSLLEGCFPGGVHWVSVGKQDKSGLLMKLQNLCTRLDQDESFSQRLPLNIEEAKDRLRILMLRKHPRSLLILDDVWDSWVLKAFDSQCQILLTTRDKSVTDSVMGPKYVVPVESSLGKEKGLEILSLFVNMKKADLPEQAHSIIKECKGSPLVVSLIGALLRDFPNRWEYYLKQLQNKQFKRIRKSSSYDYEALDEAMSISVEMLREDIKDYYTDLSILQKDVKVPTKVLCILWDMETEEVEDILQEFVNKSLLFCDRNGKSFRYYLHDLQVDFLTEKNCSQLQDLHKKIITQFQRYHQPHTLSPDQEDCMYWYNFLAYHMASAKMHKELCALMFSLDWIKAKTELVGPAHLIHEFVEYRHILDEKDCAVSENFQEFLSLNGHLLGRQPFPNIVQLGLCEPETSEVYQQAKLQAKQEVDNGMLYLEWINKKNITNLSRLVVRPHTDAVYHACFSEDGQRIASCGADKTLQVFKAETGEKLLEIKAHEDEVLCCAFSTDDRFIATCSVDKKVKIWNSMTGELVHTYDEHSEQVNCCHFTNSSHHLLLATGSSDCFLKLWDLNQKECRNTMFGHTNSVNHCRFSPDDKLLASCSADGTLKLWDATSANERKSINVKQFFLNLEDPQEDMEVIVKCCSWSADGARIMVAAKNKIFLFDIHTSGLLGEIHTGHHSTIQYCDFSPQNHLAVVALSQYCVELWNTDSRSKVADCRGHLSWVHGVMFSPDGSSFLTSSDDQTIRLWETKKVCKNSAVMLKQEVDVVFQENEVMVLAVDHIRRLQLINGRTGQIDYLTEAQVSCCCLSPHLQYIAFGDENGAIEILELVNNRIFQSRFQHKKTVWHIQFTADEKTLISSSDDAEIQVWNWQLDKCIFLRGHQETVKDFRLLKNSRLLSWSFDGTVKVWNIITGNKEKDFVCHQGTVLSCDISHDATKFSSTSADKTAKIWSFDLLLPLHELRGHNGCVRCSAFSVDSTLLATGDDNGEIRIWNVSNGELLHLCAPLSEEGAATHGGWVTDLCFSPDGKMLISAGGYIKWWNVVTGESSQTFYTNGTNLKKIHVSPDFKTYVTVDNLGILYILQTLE

[2] = molecular target: Glycogen synthase kinase-3 beta (Homo sapiens, UniProt P49841);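 also: value comes from a broad kinome profiling panel, with GSK3B as the panel member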
Activated CDC42 kinase 1 = Activated CDC42 kinase 1 (Homo sapiens, UniProt Q07912); test: Navigating the Kinome. Panel member name: ACK1
[3] = molecular target: Macrophage-stimulating protein receptor (Homo sapiens, UniProt Q04912); test: Navigating the Kinome. Panel member name: MST1R
[4] = molecular target: Mitogen-activated protein kinase kinase kinase kinase 2 (Homo sapiens, UniProt Q12851);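 also: measured as one member of a kinome-wide kinase panel, with MAP4K2 as the panel entry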
[5] = molecular target: Cyclin-dependent kinase 7 (Homo sapiens, UniProt P50613);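 also: value comes from a kinome-wide kinase profiling panel in which CDK7 is one member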
[6] = molecular target: Platelet-derived growth factor receptor beta (Homo sapiens, UniProt P09619);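 also: value comes from a kinome panel, with PDGFRB tested as one panel member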
[7] = molecular target: Leucine-rich repeat serine/threonine-protein kinase 2 (Homo sapiens, UniProt Q5S007);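 also: value from a broad kinome-wide panel profiling study in which LRRK2 was one of the kinases tested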
[8] = molecular target: cAMP-dependent protein kinase catalytic subunit PRKX (Homo sapiens, UniProt P51817)
[9] = molecular target: Dual specificity protein kinase CLK4 (Homo sapiens, UniProt Q9HAZ1)
[10] = molecular target: Cyclin-dependent kinase 9 (Homo sapiens, UniProt P50750);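 also: value from the CDK9 entry of a kinome-spanning kinase panel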
Cyclin-dependent kinase 9, sequence (P50750 whole entry): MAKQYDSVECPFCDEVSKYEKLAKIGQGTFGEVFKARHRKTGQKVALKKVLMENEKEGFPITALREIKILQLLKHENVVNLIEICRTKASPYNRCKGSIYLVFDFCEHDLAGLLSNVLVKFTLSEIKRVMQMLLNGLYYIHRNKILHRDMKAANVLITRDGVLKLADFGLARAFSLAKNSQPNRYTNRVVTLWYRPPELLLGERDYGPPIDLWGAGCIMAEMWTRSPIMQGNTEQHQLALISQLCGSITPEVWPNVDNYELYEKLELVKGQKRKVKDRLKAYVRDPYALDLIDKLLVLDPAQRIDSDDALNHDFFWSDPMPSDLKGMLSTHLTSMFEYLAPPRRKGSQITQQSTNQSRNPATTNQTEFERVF

[11] = molecular target: Dual specificity mitogen-activated protein kinase kinase 2 (Homo sapiens, UniProt P36507); test: Navigating the Kinome. Panel member name: MAP2K2
[12] = molecular target: Dual specificity protein kinase CLK2 (Homo sapiens, UniProt P49760)
[13] = molecular target: Tyrosine-protein kinase ABL1 (Homo sapiens, UniProt P00519)
Aurora kinase A = Aurora kinase A (Homo sapiens, UniProt O14965);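 also: value from the Navigating the Kinome kinase panel profiling, panel entry STK6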
[14] = molecular target: Vascular endothelial growth factor receptor 1 (Homo sapiens, UniProt P17948);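 also: measured within a kinome-wide profiling panel, FLT1 as the panel member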
[15] = molecular target: ALK tyrosine kinase receptor (Homo sapiens, UniProt Q9UM73);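 also: ALK tested as one member of a kinase panel screen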
[16] = molecular target: Casein kinase I isoform alpha (Homo sapiens, UniProt P48729)
[17] = molecular target: Dual specificity tyrosine-phosphorylation-regulated kinase 1B (Homo sapiens, UniProt Q9Y463); test: Navigating the Kinome. Panel member name: DYRK1B
[18] = molecular target: Mitogen-activated protein kinase kinase kinase kinase 4 (Homo sapiens, UniProt O95819)
[19] = molecular target: Vascular endothelial growth factor receptor 2 (Homo sapiens, UniProt P35968)
Focal adhesion kinase 1 = Focal adhesion kinase 1 (Homo sapiens, UniProt Q05397);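 also: measured as one member of a kinome panel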
[20] = molecular target: Protein kinase C theta type (Homo sapiens, UniProt Q04759); test: Navigating the Kinome. Panel member name: PRKCQ
[21] = molecular target: Hepatocyte growth factor receptor (Homo sapiens, UniProt P08581);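 also: kinase panel profiling across the kinome, with MET as the panel member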
Hepatocyte growth factor receptor, sequence (P08581 whole entry): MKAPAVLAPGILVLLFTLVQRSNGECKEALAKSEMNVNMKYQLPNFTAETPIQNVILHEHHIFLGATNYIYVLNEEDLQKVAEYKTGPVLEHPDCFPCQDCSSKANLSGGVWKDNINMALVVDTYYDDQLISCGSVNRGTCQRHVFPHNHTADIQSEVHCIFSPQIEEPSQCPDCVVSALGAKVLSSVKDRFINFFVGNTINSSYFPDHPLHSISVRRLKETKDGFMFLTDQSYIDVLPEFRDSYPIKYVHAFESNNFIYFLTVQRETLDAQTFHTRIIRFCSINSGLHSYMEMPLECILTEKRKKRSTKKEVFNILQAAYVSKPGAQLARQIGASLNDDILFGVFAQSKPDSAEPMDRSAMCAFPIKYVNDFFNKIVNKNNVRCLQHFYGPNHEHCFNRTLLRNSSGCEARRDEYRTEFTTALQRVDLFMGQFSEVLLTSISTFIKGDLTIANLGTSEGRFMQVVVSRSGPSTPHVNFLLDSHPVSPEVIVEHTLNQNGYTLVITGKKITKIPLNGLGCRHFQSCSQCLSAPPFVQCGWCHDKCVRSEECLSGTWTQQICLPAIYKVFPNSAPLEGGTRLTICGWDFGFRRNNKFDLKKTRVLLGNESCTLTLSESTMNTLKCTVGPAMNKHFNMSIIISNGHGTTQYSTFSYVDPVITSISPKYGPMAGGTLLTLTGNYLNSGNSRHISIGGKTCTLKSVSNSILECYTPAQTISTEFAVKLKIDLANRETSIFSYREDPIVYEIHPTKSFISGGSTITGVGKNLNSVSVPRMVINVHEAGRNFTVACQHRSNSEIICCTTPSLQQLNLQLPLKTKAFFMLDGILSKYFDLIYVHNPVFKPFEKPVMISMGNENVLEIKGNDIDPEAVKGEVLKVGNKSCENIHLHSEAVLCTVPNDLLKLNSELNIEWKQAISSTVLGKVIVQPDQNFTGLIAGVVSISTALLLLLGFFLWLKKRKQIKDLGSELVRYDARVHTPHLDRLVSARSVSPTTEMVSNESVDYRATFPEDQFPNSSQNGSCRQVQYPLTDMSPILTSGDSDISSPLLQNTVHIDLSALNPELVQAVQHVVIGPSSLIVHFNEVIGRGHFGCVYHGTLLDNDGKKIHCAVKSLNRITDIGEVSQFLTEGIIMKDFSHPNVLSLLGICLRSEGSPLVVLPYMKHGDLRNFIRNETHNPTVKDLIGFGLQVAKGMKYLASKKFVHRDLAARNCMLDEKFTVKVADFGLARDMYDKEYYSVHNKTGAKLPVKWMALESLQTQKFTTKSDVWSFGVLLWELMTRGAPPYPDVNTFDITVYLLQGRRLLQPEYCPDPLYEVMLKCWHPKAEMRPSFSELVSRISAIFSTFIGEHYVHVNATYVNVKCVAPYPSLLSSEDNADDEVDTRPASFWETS

[22] = molecular target: Serine/threonine-protein kinase D3 (Homo sapiens, UniProt O94806);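 also: determined within a kinase panel screen, with PRKCN as the panel member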
[23] = molecular target: Dual specificity mitogen-activated protein kinase kinase 1 (Homo sapiens, UniProt Q02750); test: Navigating the Kinome. Panel member name: MAP2K1
[24] = molecular target: Tyrosine-protein kinase receptor TYRO3 (Homo sapiens, UniProt Q06418);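 also: TYRO3 value obtained as one member of a kinome-wide profiling panel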
[25] = molecular target: Leukocyte tyrosine kinase receptor (Homo sapiens, UniProt P29376); test: Navigating the Kinome. Panel member name: LTK
Leukocyte tyrosine kinase receptor, sequence (P29376 whole entry): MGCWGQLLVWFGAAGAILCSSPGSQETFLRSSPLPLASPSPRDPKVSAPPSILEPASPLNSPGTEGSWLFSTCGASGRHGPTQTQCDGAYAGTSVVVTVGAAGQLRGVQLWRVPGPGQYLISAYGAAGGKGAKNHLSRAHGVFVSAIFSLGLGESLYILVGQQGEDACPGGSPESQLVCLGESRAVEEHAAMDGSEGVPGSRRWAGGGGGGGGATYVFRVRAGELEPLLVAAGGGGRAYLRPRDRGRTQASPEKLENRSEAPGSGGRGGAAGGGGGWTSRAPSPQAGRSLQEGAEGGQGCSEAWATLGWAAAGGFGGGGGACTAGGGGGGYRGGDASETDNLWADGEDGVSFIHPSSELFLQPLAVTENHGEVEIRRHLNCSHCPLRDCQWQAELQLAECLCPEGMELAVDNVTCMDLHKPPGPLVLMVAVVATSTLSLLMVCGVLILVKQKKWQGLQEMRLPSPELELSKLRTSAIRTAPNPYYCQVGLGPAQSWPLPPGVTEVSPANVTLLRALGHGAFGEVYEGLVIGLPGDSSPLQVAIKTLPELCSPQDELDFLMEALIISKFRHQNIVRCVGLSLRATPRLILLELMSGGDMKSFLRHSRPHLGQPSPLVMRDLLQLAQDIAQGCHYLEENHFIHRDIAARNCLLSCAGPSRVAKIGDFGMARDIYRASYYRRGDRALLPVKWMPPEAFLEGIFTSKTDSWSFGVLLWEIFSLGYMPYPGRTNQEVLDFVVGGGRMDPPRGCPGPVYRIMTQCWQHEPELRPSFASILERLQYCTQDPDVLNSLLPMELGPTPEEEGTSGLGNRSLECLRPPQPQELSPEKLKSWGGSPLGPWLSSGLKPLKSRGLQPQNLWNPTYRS

[26] = molecular target: Rho-associated protein kinase 1 (Homo sapiens, UniProt Q13464);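 also: measured within a broad kinome-wide panel profiling many kinases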
Activin receptor type-1 = Activin receptor type-1 (Homo sapiens, UniProt Q04771); test: Navigating the Kinome. Panel member name: ACVR1
[27] = molecular target: Dual specificity tyrosine-phosphorylation-regulated kinase 1A (Homo sapiens, UniProt Q13627);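 also: measured against DYRK1A as one member of a broad kinome profiling panel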
[28] = molecular target: Glycogen synthase kinase-3 alpha (Homo sapiens, UniProt P49840);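 also: GSK3A result taken from a broad kinome-wide kinase panel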
[29] = molecular target: Calcium/calmodulin-dependent protein kinase type II subunit alpha (Homo sapiens, UniProt Q9UQM7); test: Navigating the Kinome. Panel member name: CAMK2A
[30] = molecular target: cAMP-dependent protein kinase catalytic subunit alpha (Homo sapiens, UniProt P17612)
[31] = molecular target: Macrophage colony-stimulating factor 1 receptor (Homo sapiens, UniProt P07333);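 also: value comes from the Navigating the Kinome screening panel, CSF1R member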
Macrophage colony-stimulating factor 1 receptor, sequence (P07333 whole entry): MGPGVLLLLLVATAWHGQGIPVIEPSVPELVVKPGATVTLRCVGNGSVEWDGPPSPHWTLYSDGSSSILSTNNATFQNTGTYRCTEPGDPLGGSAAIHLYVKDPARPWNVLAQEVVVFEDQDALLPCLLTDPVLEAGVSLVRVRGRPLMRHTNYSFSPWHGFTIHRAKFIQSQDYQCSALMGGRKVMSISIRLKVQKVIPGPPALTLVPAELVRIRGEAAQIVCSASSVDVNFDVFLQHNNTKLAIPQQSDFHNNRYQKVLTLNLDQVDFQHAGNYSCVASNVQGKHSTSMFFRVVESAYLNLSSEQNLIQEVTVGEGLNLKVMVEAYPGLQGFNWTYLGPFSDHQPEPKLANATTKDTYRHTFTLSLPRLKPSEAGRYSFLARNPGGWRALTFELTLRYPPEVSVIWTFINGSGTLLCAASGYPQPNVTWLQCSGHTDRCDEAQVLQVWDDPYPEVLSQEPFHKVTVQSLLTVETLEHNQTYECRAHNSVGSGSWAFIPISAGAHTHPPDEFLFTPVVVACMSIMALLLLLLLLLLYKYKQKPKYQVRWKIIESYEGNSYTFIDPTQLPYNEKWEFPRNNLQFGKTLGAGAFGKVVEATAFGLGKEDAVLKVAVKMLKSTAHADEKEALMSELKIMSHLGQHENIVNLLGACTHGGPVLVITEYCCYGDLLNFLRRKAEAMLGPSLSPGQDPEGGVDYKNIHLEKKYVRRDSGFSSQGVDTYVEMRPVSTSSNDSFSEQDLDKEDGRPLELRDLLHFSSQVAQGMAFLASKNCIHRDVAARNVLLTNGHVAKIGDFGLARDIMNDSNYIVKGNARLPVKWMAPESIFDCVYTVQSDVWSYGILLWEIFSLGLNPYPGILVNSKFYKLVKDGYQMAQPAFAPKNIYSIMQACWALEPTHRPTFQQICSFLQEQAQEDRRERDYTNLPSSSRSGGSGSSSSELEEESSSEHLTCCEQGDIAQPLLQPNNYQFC

[32] = molecular target: Fibroblast growth factor receptor 1 (Homo sapiens, UniProt P11362)
Fibroblast growth factor receptor 1, sequence (P11362 whole entry): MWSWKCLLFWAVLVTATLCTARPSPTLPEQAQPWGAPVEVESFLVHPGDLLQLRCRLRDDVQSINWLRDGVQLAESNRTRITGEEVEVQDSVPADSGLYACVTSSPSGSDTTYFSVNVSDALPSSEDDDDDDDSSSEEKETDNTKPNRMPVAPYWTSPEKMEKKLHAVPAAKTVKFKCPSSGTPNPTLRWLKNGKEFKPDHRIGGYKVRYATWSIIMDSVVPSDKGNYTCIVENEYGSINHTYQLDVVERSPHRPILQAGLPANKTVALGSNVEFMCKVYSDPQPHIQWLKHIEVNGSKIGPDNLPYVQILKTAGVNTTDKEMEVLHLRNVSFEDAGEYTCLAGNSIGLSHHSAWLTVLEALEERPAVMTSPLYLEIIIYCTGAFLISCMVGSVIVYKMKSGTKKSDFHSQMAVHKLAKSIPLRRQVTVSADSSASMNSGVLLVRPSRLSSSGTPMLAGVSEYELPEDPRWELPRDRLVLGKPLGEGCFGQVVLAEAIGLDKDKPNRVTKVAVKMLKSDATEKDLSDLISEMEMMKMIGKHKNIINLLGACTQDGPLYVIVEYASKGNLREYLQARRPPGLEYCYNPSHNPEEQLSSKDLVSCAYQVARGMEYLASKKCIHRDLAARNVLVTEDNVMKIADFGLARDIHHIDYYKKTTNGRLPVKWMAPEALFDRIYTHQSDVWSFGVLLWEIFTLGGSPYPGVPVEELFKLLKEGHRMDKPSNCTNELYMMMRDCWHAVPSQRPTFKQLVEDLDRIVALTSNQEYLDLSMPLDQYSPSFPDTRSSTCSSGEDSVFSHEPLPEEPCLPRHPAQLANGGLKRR

[33] = molecular target: Cyclin-dependent kinase 5 (Homo sapiens, UniProt Q00535);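 also: CDK5 measured as one member of a kinase profiling panel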
Cyclin-dependent kinase 5, sequence (Q00535 whole entry): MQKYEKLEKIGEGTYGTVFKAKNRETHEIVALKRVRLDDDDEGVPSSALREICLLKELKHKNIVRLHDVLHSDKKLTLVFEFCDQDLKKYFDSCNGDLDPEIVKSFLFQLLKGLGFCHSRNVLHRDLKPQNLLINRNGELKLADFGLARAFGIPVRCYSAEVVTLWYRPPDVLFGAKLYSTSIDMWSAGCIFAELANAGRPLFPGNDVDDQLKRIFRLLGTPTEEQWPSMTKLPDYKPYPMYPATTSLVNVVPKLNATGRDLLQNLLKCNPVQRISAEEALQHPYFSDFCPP

[34] = molecular target: Death-associated protein kinase 3 (Homo sapiens, UniProt O43293);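 also: measured as one member of a kinome-wide profiling panel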
[35] = molecular target: T2, Melanin-concentrating hormone receptor 1 (Homo sapiens, UniProt Q99705); test: Late-stage fluorescence-based counterscreen for antagonists of the G-protein coupled receptor 7 (GPR7): cell-based dose response assay to identify antagonists of the melanin-concentrating hormone receptor 1 (MCHR1) Set 5.
T2 sequence (Q99705 whole entry): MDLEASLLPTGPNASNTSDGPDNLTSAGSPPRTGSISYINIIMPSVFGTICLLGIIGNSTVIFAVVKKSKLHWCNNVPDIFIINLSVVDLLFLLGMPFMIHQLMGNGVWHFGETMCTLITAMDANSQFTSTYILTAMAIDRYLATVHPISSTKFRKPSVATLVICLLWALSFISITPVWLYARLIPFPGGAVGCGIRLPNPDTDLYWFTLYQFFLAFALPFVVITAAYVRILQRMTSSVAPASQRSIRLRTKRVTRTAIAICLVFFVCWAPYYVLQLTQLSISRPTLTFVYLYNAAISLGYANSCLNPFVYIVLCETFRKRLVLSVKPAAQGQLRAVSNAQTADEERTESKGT

[36] = molecular target: T3, Neuropeptides B/W receptor type 1 (Homo sapiens, UniProt P48145); test: human NPBW1 receptor blockade, IC50 – cell-based, fluorescence, dose response, set 5, late-stage follow-up (AID 588566)
T3 sequence (P48145 whole entry): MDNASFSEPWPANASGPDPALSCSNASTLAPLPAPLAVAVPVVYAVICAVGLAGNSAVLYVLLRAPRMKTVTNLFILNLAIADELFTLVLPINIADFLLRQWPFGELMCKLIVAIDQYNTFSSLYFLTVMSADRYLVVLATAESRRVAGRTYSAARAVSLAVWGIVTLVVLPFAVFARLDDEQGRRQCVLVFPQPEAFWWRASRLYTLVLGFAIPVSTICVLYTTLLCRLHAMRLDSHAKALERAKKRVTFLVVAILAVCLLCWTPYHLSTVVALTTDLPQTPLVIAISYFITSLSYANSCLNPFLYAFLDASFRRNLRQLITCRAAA

[37] = molecular target: T3, Neuropeptides B/W receptor type 1; test: human NPBW1 receptor blockade, IC50 – cell-based, fluorescence, dose response, set 6, late-stage follow-up (AID 588583)
[38] = molecular target: T2, Melanin-concentrating hormone receptor 1; test: Late-stage fluorescence-based counterscreen for antagonists of the G-protein coupled receptor 7 (GPR7): cell-based dose response assay to identify antagonists of the melanin-concentrating hormone receptor 1 (MCHR1) Set 6.

## O=C(Nc1ccc2[nH]c(-c3cccs3)nc2c1)c1cccs1
[1]
  IC50: > 100 µM (inactive)

## Nc1n[nH]c2cccc(-c3ccc(F)cc3)c12
[2]
  Ki: 20 µM (active)
Activated CDC42 kinase 1
  Ki: 15.8 µM (active)
[3]
  Ki: 63.1 µM (active)
[4]
  Ki: 31.6 µM (active)
[5]
  Ki: 20 µM (active)
[6]
  Ki: 6.31 µM (active)
[7]
  Ki: 1.26 µM (active)
[8]
  Ki: 501 nM (active)
[9]
  Ki: 39.8 nM (active)
[10]
  Ki: > 63.1 µM (inactive)
[11]
  Ki: 1.26 µM (active)
[12]
  Ki: 2 µM (active)
[13]
  Ki: 15.8 µM (active)
Aurora kinase A
  Ki: > 39.8 µM (inactive)
[14]
  Ki: 79.4 µM (active)
[15]
  Ki: 63.1 µM (active)
[16]
  Ki: 7.94 µM (active)
[17]
  Ki: 6.31 µM (active)
[18]
  Ki: 20 µM (active)
[19]
  Ki: 12.6 µM (active)
Focal adhesion kinase 1
  Ki: 20 µM (active)
[20]
  Ki: 20 µM (active)
[21]
  Ki: 31.6 µM (active)
[22]
  Ki: 79.4 µM (active)
[23]
  Ki: 251 nM (active)
[24]
  Ki: 39.8 µM (active)
[25]
  Ki: 31.6 µM (active)
[26]
  Ki: 501 nM (active)
Activin receptor type-1
  Ki: 1 µM (active)
[27]
  Ki: 25.1 µM (active)
[28]
  Ki: 20 µM (active)
[29]
  Ki: 25.1 µM (active)
[30]
  Ki: 79.4 nM (active)
[31]
  Ki: 7.94 µM (active)
[32]
  Ki: 63.1 µM (active)
[33]
  Ki: 20 µM (active)
[34]
  Ki: 39.8 µM (active)

## N#CC(c1cccnc1)c1cnn(Cc2cccc3ccccc23)c(=O)c1Cl (configuration not stated)
[35]
  IC50: 3.67 µM (active)
[36]
  IC50: 1.18 µM (active)

## CCC(C#N)(c1ccccc1)c1c(Br)cnn(Cc2cccc3ccccc23)c1=O (configuration not stated)
[37]
  IC50: 8.2 µM (active)
[38]
  IC50: 8.2 µM (active)
